Consider 80 compounds from PMC12040169 (PLOS Biology, 2025).

The structures appear in SMILES notation.

One series in a line: in vitro. The following applies: human, hela cells, % viability.
As usually defined, the viability is a read-out of living cells in per cent, often relative to untreated cells. With `O=C(Nc1ccc(Cl)cc1)NC(C(=O)O)c1ccccc1` (centres unmarked) [CBK267405], the viability at 28.5 h, 10 µM is 94.9%.
For `CCc1nc2ccc(C(=O)Nc3ccc(NC(C)=O)cc3)cn2c1N(C)CC` [CBK145483], the viability at 28.5 h, 10 µM was 94.5%.
For `CCOC(=O)C(C)NC(=O)c1ccc2nc(C)sc2c1` (centres unmarked) [CBK282508], the viability at 28.5 h, 10 µM turned out to be 85.5%.
As for `CC(=O)N1CCc2nc(NC(=O)c3cccs3)sc2C1` [CBK282680], the viability at 28.5 h, 10 µM is 74.9%.
With `O=C(Nc1cccc(-c2noc(-c3ccccn3)n2)c1)c1cccs1` [CBK270283], the viability at 28.5 h, 10 µM is 88.9%.
Take `CCC(CO)Nc1cncc(-c2ccccc2CO)n1` (centres unmarked) [CBK065775]: the viability at 28.5 h, 10 µM was 103%.
As to `Cc1ccccc1OC(C)C(=O)NCCCc1ccccc1` (centres unmarked) [CBK268571], the viability at 28.5 h, 10 µM was found to be 88.3%.
On to `O=C(CCc1cccnc1)N1CCCCC1c1nc2cc(F)ccc2[nH]1` (centres unmarked) [CBK291106], for which the viability at 28.5 h, 10 µM amounted to 112%.
Turning to `CC(NC(=O)c1c(Cl)c(Cl)c(Cl)c(Cl)c1C(=O)O)c1cccs1` (centres unmarked) [CBK264722], the viability at 28.5 h, 10 µM worked out at 107%.
Same read-out and setting: as for `O=C(CCCn1ccnc1)NCC1(c2cccc(F)c2)CCCC1` [CBK281500], the figure is 88.5%; as for `Cn1c(=O)c2c(ncn2CC(=O)Nc2cccnc2)n(C)c1=O` [CBK133286], 94.5%.
The same measure, in the same setting: with `Cc1cc(C)n2nc(C(=O)NCc3ccccn3)cc2n1` [CBK269015] the figure was 89.3%; with `CN1CCN(c2cccc(-c3cc(C(F)(F)F)cc(C(F)(F)F)c3)n2)CC1` [CBK036982], 93.3%; with `Oc1c(-c2ccc(Cl)cc2)c2nc3ccccc3nc2c2ccccc12` [CBK261628], 87.7%.
For the compound `Cc1noc(C)c1S(=O)(=O)Nc1cccc(-c2cnco2)c1` [CBK067108], the viability at 28.5 h, 10 µM came to 97.1%.
Turning to `O=C(O)c1ccc(NS(=O)(=O)c2ccc3c(c2)C(=O)c2ccccc2C3=O)cc1` [CBK299828], the viability at 28.5 h, 10 µM came to 88.3%.
With `O=[N+]([O-])c1ccc(Sc2cccs2)c(C(F)(F)F)c1` [CBK002621], the viability at 28.5 h, 10 µM is 105%.
For `O=C(Nc1ccc(S(=O)(=O)N2CCOCC2)cc1)c1ccc(CN2CCc3ccccc3C2)cc1` [CBK266550], the viability at 28.5 h, 10 µM turned out to be 96.2%.
As for `COc1ccc(OC)c(-n2c(S)nnc2Cn2c(-c3ccccn3)nc3ccccc32)c1` [CBK269320], the viability at 28.5 h, 10 µM amounted to 93.5%.
For `Cc1c(Cl)cccc1S(=O)(=O)Nc1nccnc1C(=O)O` [CBK024795], the viability at 28.5 h, 10 µM came to 90.9%.
Turning to `CCC(Oc1ccccc1)C(=O)Nc1sc2c(c1C#N)CCCC2` (centres unmarked) [CBK262091], the viability at 28.5 h, 10 µM worked out at 87.5%.
Turning to `Cn1c(=O)c2c(nc(SCC(=O)O)n2C)n(C)c1=O` [CBK262942], the viability at 28.5 h, 10 µM was 88.3%.
Still for that read-out and setting: with `N/C(=N/OC(=O)c1ccc2nsnc2c1)c1ncon1` [CBK263847] the figure was 105%; with `CCCCN(Cc1ccc(C)s1)C(=O)C1CCc2nn(C)c(=O)n2C1` (centres unmarked) [CBK307360], 94.6%.
Still for that read-out and setting: with `CCC(=O)c1c(-c2ccccc2)nc2n(C)c3ccccc3n12` [CBK262488] the figure was 69.9%; with `O=C(O)C(Cc1c[nH]cn1)N1C(=O)C2C3C=CC(C3)C2C1=O` (centres unmarked) [CBK286705], 88%.
On to `COc1ccccc1C(=O)N[C@H]1C[C@@H](c2nc(-c3cnccn3)no2)N(C)C1` [CBK288850], for which the viability at 28.5 h, 10 µM was determined as 96%.
Take `CCN1C(=O)CC2(C1=O)C(=O)N(Cc1nnc(-c3ccc(C)cc3)o1)c1ccc(OC)cc12` (centres unmarked) [CBK075586]: the viability at 28.5 h, 10 µM was 90.4%.
Take `Cc1nnc(SCc2ccc(CSc3nnc(C)c(=O)[nH]3)cc2)[nH]c1=O` [CBK268085]: the viability at 28.5 h, 10 µM is 86.1%.
With `COc1cc(C(=O)NCCN2CCCC2)ccc1Nc1cncc(-c2ccc(O)cc2)n1` [CBK122661], the viability at 28.5 h, 10 µM came out at 96%.
For `Cn1c(SCC(=O)N2CCN(c3ccccc3)CC2)nnc1-c1cccc([N+](=O)[O-])c1` [CBK265209], the viability at 28.5 h, 10 µM is 105%.
With `O=[N+]([O-])c1ccc2c(c1)C(O)n1nc(-c3ccncc3)nc1S2` (centres unmarked) [CBK288533], the viability at 28.5 h, 10 µM is 94.7%.
Same read-out and setting: with `CC(C)(C)c1ccc(-n2cc(-c3ccc(Cl)cc3)nn2)cc1` [CBK113031] the figure was 102%; with `COc1ccc2[nH]c(SCC(=O)O)nc2c1` [CBK091620], 91%; with `COc1cccc2ncn(CCc3csc(N)n3)c(=O)c12` [CBK307679], 81.9%.
On to `COCCN1CCn2c(nc3cc(NC(=O)C4CCCCC4)ccc32)C1` [CBK307411], for which the viability at 28.5 h, 10 µM worked out at 112%.
On the same count and under the same terms, with `Cc1ccc(OCC(=O)Nc2ccc3c(c2)oc2ccccc23)cc1[N+](=O)[O-]` [CBK266036] the figure was 100%.
For `CC1=CC(C)C(C(=O)O)C(C(=O)N2CCN(C)CC2)C1` (centres unmarked) [CBK027311G], the viability at 28.5 h, 10 µM stood at 97.7%.
With `Cn1ncc(N)c1C(=O)Nc1cccc(Cl)c1` [CBK270107], the viability at 28.5 h, 10 µM came to 87.6%.
As for `Cn1cnc([N+](=O)[O-])c1Oc1cccc(C(F)(F)F)c1` [CBK002790], the viability at 28.5 h, 10 µM was found to be 87%.
As for `Cc1nc2cc(NC(=O)Cc3c(C)nc4ccccc4c3C)ccc2o1` [CBK297083], the viability at 28.5 h, 10 µM is 110%.
Still for that read-out and setting: as for `Fc1ccc(-c2nccnc2OCc2ccc3c(c2)OCO3)cc1` [CBK106896], the figure is 93.3%.
Regarding `O=C(NC[C@H]1C[C@@H]2CC[N@]1C[C@@H]2CN1CCN(c2ncccn2)CC1)Nc1ccsc1` [CBK289117], the viability at 28.5 h, 10 µM came to 90.3%.
Still for that read-out and setting: with `Cc1n[nH]c(C)c1Sc1ccccc1/N=C/c1ccc(C(=O)O)cc1` [CBK262055] the figure was 86.9%.
Take `CC(=O)C12c3ccccc3C(c3ccccc31)C1C(=O)N(c3ccc(Cl)c(C(=O)O)c3)C(=O)C12` (centres unmarked) [CBK263021]: the viability at 28.5 h, 10 µM was 93.8%.
On to `O=C(NCc1ccc(Cl)c(Cl)c1)C1(c2ccccc2)CCCC1` [CBK149528], for which the viability at 28.5 h, 10 µM was 92.8%.
With `O=C(CCCn1ccnc1)NC(Cc1ccsc1)c1cccnc1` (centres unmarked) [CBK285158], the viability at 28.5 h, 10 µM was determined as 94.9%.
On to `CC(C)CNC(=O)c1cc(C2CN(Cc3c[nH]nc3C(C)(C)C)CCO2)nc2ccccc12` (centres unmarked) [CBK285925], for which the viability at 28.5 h, 10 µM amounted to 104%.
`O=[N+]([O-])c1ccc(O)c(/C=N/c2ccc3cc4ccc(/N=C/c5cc([N+](=O)[O-])ccc5O)cc4nc3c2)c1` [CBK261557]: the viability at 28.5 h, 10 µM was 57.4%.
On to `Cc1cc(Cl)c(S(=O)(=O)N(C)C)cc1OCC(=O)Nc1ccccc1` [CBK269705], for which the viability at 28.5 h, 10 µM was found to be 89%.
As for `Cc1cc2c(cc3c(=O)n(CC(=O)N4CCC(C)CC4)nc(C)n32)o1` [CBK283590], the viability at 28.5 h, 10 µM is 90.1%.
As for `Cc1ccc2[nH]c3c(c2c1)CCNC31CCN(CC2CCCCO2)CC1` (centres unmarked) [CBK039545], the viability at 28.5 h, 10 µM worked out at 103%.
With `Cc1nc2c(c(=O)[nH]1)CN(Cc1cn(C(C)C)c3ccccc13)CC2` [CBK284014], the viability at 28.5 h, 10 µM turned out to be 93.5%.
On to `Cc1c(Cl)cccc1NC(=O)c1cnc2sccn2c1=O` [CBK246518], for which the viability at 28.5 h, 10 µM is 115%.
The same measure, in the same setting: with `O=C(c1ccno1)n1nccc1-c1cc(-c2ccccc2)no1` [CBK022074] the figure was 101%.
Consider `OCCN1CC2(CCN(CCc3cccc4ccccc34)CC2)c2ccccc21` [CBK137013], for which the viability at 28.5 h, 10 µM was found to be 106%.
For the compound `CC(=O)Nc1ccc(S(=O)(=O)NCCC#N)cc1Cl` [CBK044272], the viability at 28.5 h, 10 µM is 95.2%.
On the same count and under the same terms, as for `O=C(NCCSCc1ccco1)Nc1cccc(Cl)c1` [CBK268277], the figure is 99.2%; as for `O=C1N=C(NC2CCCCCC2)SC1Cc1ccc(O)cc1` (centres unmarked) [CBK067868], 109%; as for `Cc1cc(-c2nnc(SCCC(=O)Nc3ccccc3)o2)no1` [CBK268737], 104%.
`Cc1noc(C)c1S(=O)(=O)N1CCOCC1c1cccc(F)c1` (centres unmarked) [CBK304171]: the viability at 28.5 h, 10 µM came out at 109%.
Same read-out and setting: as for `Cc1oc(C(=O)Nc2ccc(C(=O)O)cc2)cc1COc1ccccc1` [CBK263273], the figure is 94.2%.
As for `CCOc1ccc(NC(=O)NC(CC)c2cnn(C)c2)cc1Cl` (centres unmarked) [CBK307262], the viability at 28.5 h, 10 µM was determined as 107%.
Still for that read-out and setting: as for `Cc1nc(N2CCOCC2)nc(Nc2ccc(Cl)cc2)c1[N+](=O)[O-]` [CBK264685], the figure is 87.5%; as for `O=C(NCCN1CCOCC1)c1ccc(Nc2cncc(-c3ccc(O)cc3)n2)cc1` [CBK115692], 77.1%; as for `Nc1nc2ccccc2n1CCOc1ccc(Cl)cc1` [CBK087352], 85.9%.
For `CCNc1n[nH]c(N)c1-c1nc(-c2ccc(OC)cc2)no1` [CBK288557], the viability at 28.5 h, 10 µM came to 94.2%.
In the case of `CC(=O)Nc1c(C#N)cnn1C` [CBK046332], the viability at 28.5 h, 10 µM was 96%.
With `CCNc1nc(-c2cc(Cl)cc(Cl)c2)cn2ccnc12` [CBK066483], the viability at 28.5 h, 10 µM is 89.6%.
`O=C(/C=C/c1ccc(C(=O)Nc2cccnc2)cc1)Nc1cccnc1` [CBK265617]: the viability at 28.5 h, 10 µM was found to be 66.7%.
On to `CC(C)CNC(=S)NNC(=O)CC(C)O` (centres unmarked) [CBK266921], for which the viability at 28.5 h, 10 µM was 93.9%.
In the case of `FC(F)(F)c1ccnc(OCCNc2ccccc2)n1` [CBK115839], the viability at 28.5 h, 10 µM came to 90.8%.
As to `Cn1ncc(N2CCN(C(=O)CCCOc3ccccc3)CC2)cc1=O` [CBK306937], the viability at 28.5 h, 10 µM is 84.2%.
Turning to `Cc1ccc(S(=O)(=O)N(CC(O)Cn2c3ccc(Cl)cc3c3cc(Cl)ccc32)c2ccccc2)cc1` (centres unmarked) [CBK263353], the viability at 28.5 h, 10 µM was 92.2%.
Take `Cc1nc(-c2cc3c(s2)CCN(Cc2ccc(CO)o2)C3)cs1` [CBK306411]: the viability at 28.5 h, 10 µM came to 90%.
Turning to `C[C@H](Oc1cncc(N2CCNCC2)n1)c1ccccc1Cl` [CBK172341G], the viability at 28.5 h, 10 µM amounted to 108%.
As for `CCC(CO)NC(=O)C1(Cc2ccc(-c3cc(C)cc(C)c3)cc2)CCOCC1` (centres unmarked) [CBK286522], the viability at 28.5 h, 10 µM was found to be 90.8%.
Consider `O=C(c1cccnc1)C1CCN(C(=O)c2ccccc2F)CC1` [CBK283853], for which the viability at 28.5 h, 10 µM came out at 95.1%.

Still in this series, the particulars now being: human, hela cells, % viability, bulk resorufin, single well.
Regarding `CN(C)[C@H]1CCC[C@@H]1C(=O)Nc1ccc(Cl)c(Cl)c1` [CBK003406], the viability at 28.5 h, 10 µM worked out at 86.9%.
As to `CCOC(=O)C1(c2ccccc2)CCN(C(=O)c2ccc(OC(F)(F)F)cc2)CC1` [CBK132174], the viability at 28.5 h, 10 µM was 96.2%.
